Changes are numbered by the printed parent chain. Converted amounts (≈) assume the structure as drawn. Like-named read-outs stand apart in the source and are kept apart here.
Legend:
R172Q mIDH2 = target: T1, R172Q mIDH2 (Homo sapiens, UniProt P48735, R172Q); assay: mIDH2-R172Q enzyme assay (Reaction Biology), diaphorase/resazurin coupled; settings: for Emax: read-out: IDH2 R172Q % EMax
T1 sequence (P48735 40-452 R172Q): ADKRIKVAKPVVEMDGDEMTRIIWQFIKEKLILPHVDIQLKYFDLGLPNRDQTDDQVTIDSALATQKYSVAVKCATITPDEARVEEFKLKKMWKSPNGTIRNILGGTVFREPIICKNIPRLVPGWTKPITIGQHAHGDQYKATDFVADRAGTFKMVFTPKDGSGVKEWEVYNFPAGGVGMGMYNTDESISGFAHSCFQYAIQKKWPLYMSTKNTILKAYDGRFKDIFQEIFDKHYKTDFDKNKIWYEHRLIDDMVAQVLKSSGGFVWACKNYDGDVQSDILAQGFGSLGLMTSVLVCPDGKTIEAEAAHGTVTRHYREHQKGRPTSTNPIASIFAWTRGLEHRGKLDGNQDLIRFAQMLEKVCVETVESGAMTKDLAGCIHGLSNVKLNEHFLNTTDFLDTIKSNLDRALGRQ

[1] = Microsomal metabolic stability, mouse; format: in vitro ADME; settings: pH 7.4; mouse liver microsomes
[2] = Microsomal metabolic stability, human; format: in vitro ADME; settings: pH 7.4; human liver microsomes
[3] = High-throughput PAMPA (GIT), pH 7.4; format: in vitro ADME; settings: read-out: HT PAMPA Permeability
Description: In Vitro Physicochemical and Drug Metabolism Studies:
High-Throughput PAMPA assay
The stirring double- sin k PAMPA method patented by pION Inc. (Billeri ca, MA) was employed to determine the permeability of compounds via PAMPA passive diffusion. The PAMPA lipid membrane consisted of an artificial membrane of a proprietary lipid mixture and dodecane (Pion Inc.), optimized to predict gastrointestinal tract (GIT) passive diffusion permeability, was immobilized on a plastic matrix of a 96 well “donor” filter plate placed above a 96 well “a cceptor” plate. A pH 7.4 solution was used in both donor and acceptor wells. The test articles, stocked in 10 mM DMSO solutions, were diluted to 0.05 mM in aqueous buffer (pH 7.4) , and the concentration of DMSO was 0.5% in the final solution. During the 30-min permeation period at room temperature, the test samples in the donor compartment were stirred using the Gutbox te chnology (Pion Inc.) to reduce the unstirred water layer. The test article concentrations in the donor and acceptor compartments were measured using an UV plate reader (Nano Quant, Infinite 200 […]
PRO, Tecan Inc., Männedorf, Switzerland). Permeability calculations were performed using Pion Inc. software and were expressed in units of 10-6 cm/s. […]

in vitro = settings: human, Caco-2
human hepatocytes = assay: Human hepatocyte cytotoxicity (CellTiter-Glo, 72 hr); settings: Homo sapiens, Hepatocyte, read-out: Human Hepatocytes EC50
[4] = as above; settings: both, human, cryopreserved human hepatocytes
hERG channel = target: T2, hERG channel (Homo sapiens, UniProt Q12809); assay: hERG FluxOR-based thallium flux assay; format: cell-based; settings: In Vitro Toxicity; for Emax: human, U2OS cells transduced with hERG-BacMam virus
T2 construct: host or cells: U2OS cells (ATCC)
T2 sequence (Q12809 whole entry): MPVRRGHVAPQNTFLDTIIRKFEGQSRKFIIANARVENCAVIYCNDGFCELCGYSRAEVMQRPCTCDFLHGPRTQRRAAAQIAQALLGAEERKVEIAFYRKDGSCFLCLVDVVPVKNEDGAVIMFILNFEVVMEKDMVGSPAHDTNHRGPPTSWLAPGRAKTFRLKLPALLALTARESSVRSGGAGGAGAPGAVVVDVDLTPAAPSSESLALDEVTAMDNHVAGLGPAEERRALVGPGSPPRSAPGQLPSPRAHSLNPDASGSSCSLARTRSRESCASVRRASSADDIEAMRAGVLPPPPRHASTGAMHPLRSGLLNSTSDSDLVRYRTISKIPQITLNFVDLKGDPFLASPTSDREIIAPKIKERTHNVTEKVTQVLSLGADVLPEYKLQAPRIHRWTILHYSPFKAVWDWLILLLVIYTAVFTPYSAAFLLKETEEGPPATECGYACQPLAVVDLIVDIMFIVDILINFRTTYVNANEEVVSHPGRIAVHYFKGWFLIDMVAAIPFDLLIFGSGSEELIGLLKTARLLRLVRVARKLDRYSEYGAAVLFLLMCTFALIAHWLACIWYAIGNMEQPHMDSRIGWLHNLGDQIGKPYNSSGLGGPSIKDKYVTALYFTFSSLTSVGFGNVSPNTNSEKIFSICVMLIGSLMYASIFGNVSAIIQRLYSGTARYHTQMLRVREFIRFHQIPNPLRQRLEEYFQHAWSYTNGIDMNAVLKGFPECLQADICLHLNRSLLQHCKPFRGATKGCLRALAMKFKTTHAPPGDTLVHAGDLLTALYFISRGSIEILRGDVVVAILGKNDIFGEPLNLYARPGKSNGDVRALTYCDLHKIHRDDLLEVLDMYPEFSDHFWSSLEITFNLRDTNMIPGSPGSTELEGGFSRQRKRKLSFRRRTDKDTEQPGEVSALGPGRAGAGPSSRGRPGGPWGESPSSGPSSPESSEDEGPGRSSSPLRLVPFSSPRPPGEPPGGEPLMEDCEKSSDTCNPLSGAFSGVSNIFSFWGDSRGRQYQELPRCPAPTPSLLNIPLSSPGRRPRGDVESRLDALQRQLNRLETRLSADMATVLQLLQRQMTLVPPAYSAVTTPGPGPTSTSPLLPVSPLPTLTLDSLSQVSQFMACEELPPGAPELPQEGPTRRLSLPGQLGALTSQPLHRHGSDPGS

[5] = High-throughput kinetic solubility (µSOL), pH 7.4; format: physicochemical; settings: aqueous solution pH 7.4, pH 7.4, aqueous buffer, kinetic from dmso stock; read-out: HT Kinetic Solubility, Solubility
Protocol: High-Throughput kinetic solubility test assay
Pion’s patented µSOL assay for kinetic solubility determination was used. In this assay, the classical saturation shake- flask solub ility method was adapted to a 96-well microtiter plate format and a co-solvent method with n- propanol as the […] was utilized. Test compounds were prepared in 10 mM DMSO solutions (45 µ L), and diluted with the co-solve nt to a final drug conce ntration of […]
Samples are incubated at room temperature for 6 hrs t o achieve equilibrium. The samples were then filtered to remove any precipitate formed. The concentrat ion of the compound in the filtrate was measured by UV ab sorbance. […]
used for quantitation of unknown drug concent ration in filtrate. Spectroscopically pure 1- Propanol was used as acosolvent to suppress precipitation in the reference

IDH2 WT = target: T3, IDH2 WT (Homo sapiens, UniProt P48735); assay: Wild type IDH2 enzyme assay, diaphorase/resazurin coupled
T3 sequence (P48735 40-452): T1 sequence (P48735 40-452 R172Q) with Q133R

[6] = Human plasma protein binding (rapid equilibrium dialysis, Cyprotex); format: in vitro ADME; settings: for fraction unbound at 4 h, 5 µM: human, plasma, human plasma
[7] = Microsomal metabolic stability, rat; format: in vitro ADME; settings: pH 7.4; rat liver microsomes
IDH1 WT = IDH1 WT (Homo sapiens, UniProt O75874); assay: Wild type IDH1 enzyme assay, diaphorase/resazurin coupled; settings: for Emax: read-out: IDH1 WT % EMax
Chain of IDH1 WT (O75874 whole entry): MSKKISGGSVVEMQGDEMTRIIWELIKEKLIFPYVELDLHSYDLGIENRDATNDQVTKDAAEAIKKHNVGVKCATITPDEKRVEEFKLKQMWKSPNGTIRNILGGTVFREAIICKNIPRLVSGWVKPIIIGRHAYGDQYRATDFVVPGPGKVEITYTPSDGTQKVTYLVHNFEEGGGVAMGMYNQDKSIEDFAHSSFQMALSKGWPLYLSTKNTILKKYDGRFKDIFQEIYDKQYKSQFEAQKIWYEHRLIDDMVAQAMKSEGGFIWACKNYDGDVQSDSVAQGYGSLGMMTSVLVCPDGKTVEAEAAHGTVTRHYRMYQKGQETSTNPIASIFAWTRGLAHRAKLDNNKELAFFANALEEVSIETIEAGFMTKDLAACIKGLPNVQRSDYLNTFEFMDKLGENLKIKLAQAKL

[8] = system: RBE (R132S) 3D cellular spheroids; assay: 2-HG production, spheroids (3D), RBE; format: cell-based; settings: Homo sapiens; 3D spheroid, mass spec
Description: (§1) To evaluate the effect of mIDH1 inhibitors in more relevant models of solid tumors, we adapted a 3-dimensional (3D) multicellular tumor spheroid assay to monitor spheroid formation and 2-HG production. Small molecules can have diminished efficacy in multicellular tumor spheroid models due to limited penetration and the heterogeneous nature of the 3D tumor spheroid[39],[40]. We began by testing the 6 aforementioned cell lines for their ability to form spheroids in ultra-low attachment plates at varying cell concentrations (1000–5000 cells/well). […] Overall, spheroids produced less extracellular 2-HG than cells cultured in monolayer (Fig. 7B).
(§2) Using these simple 3D models of solid tumors, we assessed the ability of inhibitors to reduce 2-HG production.
(§3) 2-HG production: Cells grown as spheroids (3D)
(§4) (RBE) cells/well/150 μ L to form spheroids. Of note, we were not able to obtain spheroids using SNU1079 cells. Plates were sealed with gas permeable membranes, centrifuged at 40 rcf for 1 min, and incubated at 37°C, 5% CO2, 90% RH for 96 (HT108 0, U87 and JJ01 2) or 4 8 (RBE) h r. Cells were washed (by remo ving 10 0 μL of exhausted media and re placing it with 100 μL of growth media, twice) and treated with 50 μL of a solution of media containing the indicated compounds. Each compound was tested as an 8-point dilution series ranging from 5 μM to 2.3 nM.
(§5) After 96 hr of t reatment, 100 μL of the exhausted media was collected and snap frozen on dry ice. Samples were analyzed by LC -MS for 2- HG concentrations using Rapidfire /Mass Spectrometry (Quintara) ( 4) . Plates were first imaged on the Celigo Imaging Cytometer (Ne xcelom Bioscience) to quantify area of each spheroid. Cell viability was subsequently measured using the CellTiter-Glo assay with some modifications: 50 μL of a solution of CellTiter-Glo reagent containing a final concentration of 0.025 % Trypsin (Thermo Sci entific) was added to each well and plates were shaken at 500 rpm for 30 min before reading.

[9] = system: JJ012 (R132G) 3D cellular spheroids; assay: 2-HG production, spheroids (3D), JJ012; format: cell-based; settings: Homo sapiens; 3D spheroid, mass spec
Description: as §1, §2, §3, §4, §5

RBE (R132S) cells = assay: 2-HG production, monolayer (2D), mass spectrometry, RBE; format: cell-based; settings: Homo sapiens, mass spec; for Emax: read-out: 2D Cellular 2HG Production (Mass Spec) RBE (R132S) % EMax; for EC50: read-out: 2D Cellular 2HG Production (Mass Spec) RBE (R132S) EC50
Protocol: (§6) (Supplementary Table 2). Inhibition of the target was assessed by quantitative measurement of 2-HG levels in extracellular media of monolayer (or 2-dimentional, 2D) cultures following incubation (48 hrs) with inhibitors. […]
(§7) treated 96-well plates (Corning) at a density of 8000 cells/well/100 μL . Plates were sealed with gas permeable membranes (Research Products International Corp.) and incubated at 37°C, 5% CO2, 90% RH for 24 hr. Growth media was subsequently aspirated and replaced with 100 μL of a solution of growth media cont aining either vehicle DMSO or indicated mIDH1 inhibitor. Each compound was tested as an 8-point dilution series ranging from 5 μM to 2.3 nM. After 48 hr treatment, 75 μL of the exhausted media was collected and snap frozen on dry ice. Samples were analyzed by LC-MS for 2- HG concentrations using Rapidfire / Mass Spectrometry (Quintara) (4) . Remaining cells were assessed for viability by adding 100 μL of fresh media and 50 μL of CellTiter-Glo reagent (Promega) as per manufacturer instructions. Luminescence was read using a Vi ewLux High-throu ghpu t CCD imager (PerkinElmer) equipped with clear filters.

JJ012 (R132G) cells = assay: 2-HG production, monolayer (2D), mass spectrometry, JJ012; format: cell-based; settings: Homo sapiens, mass spec; for Emax: read-out: 2D Cellular 2HG Production (Mass Spec) JJ012 (R132G) % EMax; for EC50: read-out: 2D Cellular 2HG Production (Mass Spec) JJ012 (R132G) EC50
Protocol: as §6, §7

[10] = read-out: Human Plasma Protein Binding % Bound (converted)
[11] = read-out: Human Plasma Protein Binding % Unbound

Row | SMILES | Emax (R172Q mIDH2) [%] | half-life at 1 µM [1] [min] | half-life at 1 µM [2] [min] | Papp at 30 min, 0.05 mM [3] [×10⁻⁶ cm/s] | Papp A→B at 2 h, 10 µM (in vitro) [×10⁻⁶ cm/s] | Papp B→A at 2 h, 10 µM (in vitro) [×10⁻⁶ cm/s] | EC50 (human hepatocytes) [µM] | Emax at 72 h [4] [%] | EC50 (hERG channel) [µM] | Emax (hERG channel) [%] | solubility kinetic at 6 h [5] [µM] | Emax (IDH2 WT; read-out: IDH2 % EMax) [%] | fraction unbound at 4 h, 5 µM [6, 11] | half-life at 1 µM [7] [min] | EC50 (IDH1 WT; IDH1 WT EC50, Biochemical) [µM] | Emax (IDH1 WT) [%] | EC50 (IDH2 WT) [µM] | Emax (IDH2 WT; read-out: IDH2 WT % EMax) [%] | EC50 (R172Q mIDH2) [µM] | EC50 [8] [µM] | also measured
1 | O=C(Nc1cccc(C(F)(F)F)c1)Nc1cc(S(=O)(=O)NC2CC2)ccc1-c1ccsc1 [AGI-6780] | 74.4 | 4.6 | 3.1 | 523 | 0.85 | 12.5 | 21.9 | 108 | 25.1 | 99.8 | 0.374 (≈ 0.18 µg/mL) | 85.2 | 0.00083 | 4.5 | > 30 | 8.1 | – | – | – | – | fraction unbound at 4 h, 5 µM [6, 10]: 0.001
2 | CC(=O)N1CCN(Cc2ccc([C@H](C)Nc3nccc(N4C(=O)OC[C@@H]4C(C)C)n3)cc2)CC1 [Novartis 556] | – | – | – | – | – | – | – | – | – | – | – | – | – | – | – | 90 ± 7.4 | > 30 | 20.7 ± 5.4 | – | – | unbound fraction in human plasma ([6]; 5 µM): ~ 10 % unbound; EC50 (IDH1 WT; IDH1 WT EC50, purified enzyme): 10.5 ± 1.01 µM
3 | CC(C)[C@H]1COC(=O)N1c1ccnc(N[C@@H](C)c2ccc(CN3CCC(F)(F)CC3)cc2)n1 [Novartis 224] | 3.4 | – | – | – | – | – | – | – | – | – | – | – | – | – | – | – | > 30 | 19.4 ± 11.4 | > 30 | 0.412 | Emax [8]: 86.3%; EC50 [9]: 0.098 µM; Emax [9]: 87.2%; Emax (RBE (R132S) cells): 109%; EC50 (RBE (R132S) cells): 0.221 µM; Emax (JJ012 (R132G) cells): 68%; EC50 (JJ012 (R132G) cells): 0.121 µM
4 | CC(C)Nc1nc(Nc2ccccc2)nc(-c2ccccc2)n1 [IDH2-C100] | 72.2 | 13.5 | 20.6 | 482 | 0.57 | 2.34 | > 30 | 31.5 | > 30 | 7.2 | 0.458 (≈ 0.14 µg/mL) | 84.7 | 0.00011 | 26.7 | > 30 | 11.8 | 6.59 | – | 0.343 | – | IC50 (R172Q mIDH2): ~1 µM
5 | CC(C)[C@H]1COC(=O)N1c1ccnc(N[C@@H](C)c2ccc(C(=O)NC3CCCC3)c(Cl)c2)n1 [Novartis 530] | 3.9 | – | – | – | – | – | – | – | – | – | – | – | – | – | 3.5 | 102 ± 5.8 | > 30 | 17.3 ± 4.4 | > 30 | 0.571 | Emax [8]: 86.9%; EC50 [9]: 0.069 µM; Emax [9]: 92.4%; Emax (RBE (R132S) cells): 88.2%; EC50 (RBE (R132S) cells): 0.078 µM; Emax (JJ012 (R132G) cells): 70.5%; EC50 (JJ012 (R132G) cells): 0.076 µM; EC50 (IDH1 WT; IDH1 WT EC50, purified enzyme): 3.51 ± 0.17 µM
6 | CC(C)(O)CNc1nc(Nc2ccnc(C(F)(F)F)c2)nc(-c2cccc(C(F)(F)F)n2)n1 [AG-221, Enasidenib] | 87.2 | > 120 | > 120 | 1310 | 9.41 | 23.8 | 18.4 | 84.8 | > 30 | 33.2 | 14.2 (≈ 6.72 µg/mL) | 83.4 | 0.00637 | > 120 | 15.1 | 57.7 | > 30 | – | 0.044 | – | IC50 (R172Q mIDH2): 0.065 µM; efflux ratio at 2 h, 10 µM (in vitro): 2.54; fraction unbound at 4 h, 5 µM [6, 10]: 0.006
7 | CC(C)(C)CC(C)(C)c1cc(Cn2ccnc2)c(O)c(Cn2ccnc2)c1 [Sanofi 1] | 3.2 | – | – | – | – | – | – | – | – | – | – | 26.7 | – | – | – | 18.8 ± 2.2 | > 30 | 19.9 ± 8 | > 30 | > 30 | Emax [8]: 47.3%; EC50 [9]: > 30 µM; Emax [9]: 35.3%; Emax (RBE (R132S) cells): 29.3%; EC50 (RBE (R132S) cells): > 30 µM; Emax (JJ012 (R132G) cells): 28.8%; EC50 (JJ012 (R132G) cells): > 30 µM

From publication PMC5630632, “Assessing inhibitors of mutant isocitrate dehydrogenase using a suite of pre-clinical discovery assays” (Scientific Reports, 2017)
